Data reported in ChEMBL document CHEMBL3751744, “Antibacterial activities of polythionates enhanced by carbonates” (2015).
Values belong to the molecule of their own block, whether it stands above or below them. Calls of active or inactive are those of the source. The rule behind the calls is not given here.

Key:
Pseudomonas aeruginosa [1] = assay: Bactericidal activity against Pseudomonas aeruginosa assessed number of surviving colonies after 24 hrs in presence of urea; assay type: functional; details: read-out: MBC99.9
Staphylococcus aureus [2] = assay: Potency index, ratio of MIC for Staphylococcus aureus to MIC for Staphylococcus aureus assessed as growth inhibition in presence of urea; assay type: functional
Staphylococcus aureus [3] = assay: Antibacterial activity against Staphylococcus aureus assessed as growth inhibition after 24 hrs in presence of carbonate by turbidimetric method; assay type: functional
Staphylococcus aureus [4] = assay: Antibacterial activity against Staphylococcus aureus at 250 ug/ml by cup diffusion method; assay type: functional, organism-based
Pseudomonas aeruginosa [5] = assay: Antibacterial activity against Pseudomonas aeruginosa using 24 hrs aged compound solutions by cup diffusion method; assay type: functional, organism-based
Staphylococcus aureus [6] = system: Staphylococcus aureus
Description: Bactericidal activity against Staphylococcus aureus assessed number of surviving colonies after 24 hrs

Pseudomonas aeruginosa [7] = assay: Antibacterial activity against Pseudomonas aeruginosa assessed as growth inhibition after 24 hrs in presence of carbonate by turbidimetric method; assay type: functional
Pseudomonas aeruginosa [8] = assay: Bactericidal activity against Pseudomonas aeruginosa assessed number of surviving colonies after 24 hrs in presence of carbonate; assay type: functional; details: read-out: MBC99.9
Pseudomonas aeruginosa [9] = assay: microbe, parasite or virus in culture; assay type: functional; details: 24 h
Description: (§1) Antibacterial activity against Pseudomonas aeruginosa assessed as growth inhibition after 24 hrs by turbidimetric method

Pseudomonas aeruginosa [10] = assay: Antibacterial activity against Pseudomonas aeruginosa assessed as growth inhibition after 24 hrs in presence of urea by turbidimetric method; assay type: functional
Staphylococcus aureus [11] = assay: Antibacterial activity against Staphylococcus aureus assessed as growth inhibition after 24 hrs in presence of urea by turbidimetric method; assay type: functional
Pseudomonas aeruginosa [12] = assay: Antibacterial activity against Pseudomonas aeruginosa at 125 ug/ml by cup diffusion method; assay type: functional, organism-based
Pseudomonas aeruginosa [13] = assay: Potency index, ratio of MIC for Pseudomonas aeruginosa to MIC for Pseudomonas aeruginosa assessed as growth inhibition in presence of urea; assay type: functional
Staphylococcus aureus [14] = assay: Antibacterial activity against Staphylococcus aureus assessed as growth inhibition after 24 hrs by turbidimetric method; assay type: functional
Staphylococcus aureus [15] = assay: Bactericidal activity against Staphylococcus aureus […] assessed number of surviving colonies after 24 hrs in presence of carbonate; assay type: functional, organism-based
Pseudomonas aeruginosa [16] = assay: Bactericidal activity against Pseudomonas aeruginosa assessed number of surviving colonies after 24 hrs; assay type: functional; details: read-out: MBC99.9
Staphylococcus aureus [17] = assay: Bactericidal activity against Staphylococcus aureus […] assessed number of surviving colonies after 24 hrs in presence of urea; assay type: functional, organism-based
Staphylococcus aureus [18] = assay: Antibacterial activity against Staphylococcus aureus at <125 ug/ml by cup diffusion method; assay type: functional, organism-based
Pseudomonas aeruginosa [19] = assay: Antibacterial activity against Pseudomonas aeruginosa at 7.8 ug/ml by cup diffusion method; assay type: functional, organism-based
Pseudomonas aeruginosa [20] = system: Pseudomonas aeruginosa
Pseudomonas aeruginosa [21] = system: Pseudomonas aeruginosa; remark: listed apart in the source
Description: as §1

Staphylococcus aureus [22] = system: Staphylococcus aureus; remark: listed apart in the source

- MIC (Staphylococcus aureus [3]): 15.6 µg/mL
- MIC (Pseudomonas aeruginosa [7]): 1.95 µg/mL
- MIC (Pseudomonas aeruginosa [9]): 0.98 µg/mL
- MIC (Pseudomonas aeruginosa [10]): 1.95 µg/mL
- MIC (Staphylococcus aureus [11]): 62.5 µg/mL
- MIC (Staphylococcus aureus [14]): 7.81 µg/mL
SMILES: O=S(=O)([O-])SSSSS(=O)(=O)[O-].[K+].[K+]
- MBC (Pseudomonas aeruginosa [1]): 500 µg/mL
- Ratio (Staphylococcus aureus [2]): 4
- Activity (Staphylococcus aureus [4]): Active
- Activity (Pseudomonas aeruginosa [5]): Active
- MBC99.9 (Staphylococcus aureus [6]): inactive
- MBC (Pseudomonas aeruginosa [8]): 500 µg/mL
- Activity (Pseudomonas aeruginosa [12]): Active
- Ratio (Pseudomonas aeruginosa [13]): 4
- MBC99.9 (Staphylococcus aureus [15]): inactive
- MBC (Pseudomonas aeruginosa [16]): 1000 µg/mL
- MBC99.9 (Staphylococcus aureus [17]): inactive
- Activity (Staphylococcus aureus [18]): inactive
- Activity (Pseudomonas aeruginosa [19]): Active

- MIC (Pseudomonas aeruginosa [21]): inactive
- MIC (Staphylococcus aureus [22]): inactive
SMILES: NC(N)=O
- MBC99.9 (Staphylococcus aureus [6]): inactive
- MBC99.9 (Pseudomonas aeruginosa [20]): inactive

SMILES: O=S(=O)(O)O
- MBC99.9 (Staphylococcus aureus [6]): inactive
- MBC99.9 (Pseudomonas aeruginosa [20]): inactive
- MIC (Pseudomonas aeruginosa [21]): inactive
- MIC (Staphylococcus aureus [22]): inactive

- MIC (Staphylococcus aureus [3]): 125 µg/mL
- MIC (Pseudomonas aeruginosa [7]): 3.91 µg/mL
- MIC (Pseudomonas aeruginosa [9]): 1.95 µg/mL
- MIC (Pseudomonas aeruginosa [10]): 15.6 µg/mL
- MIC (Staphylococcus aureus [11]): inactive
- MIC (Staphylococcus aureus [14]): 62.5 µg/mL
SMILES: O=S(=O)([O-])SSSS(=O)(=O)[O-].[K+].[K+]
- MBC (Pseudomonas aeruginosa [1]): 1000 µg/mL
- Activity (Pseudomonas aeruginosa [5]): Active
- MBC99.9 (Staphylococcus aureus [6]): inactive
- MBC (Pseudomonas aeruginosa [8]): 1000 µg/mL
- MBC99.9 (Staphylococcus aureus [15]): inactive
- MBC (Pseudomonas aeruginosa [16]): 500 µg/mL
- MBC99.9 (Staphylococcus aureus [17]): inactive

- MIC (Pseudomonas aeruginosa [21]): inactive
- MIC (Staphylococcus aureus [22]): inactive
SMILES: O=S(O)(O)=S
- MBC99.9 (Staphylococcus aureus [6]): inactive
- MBC99.9 (Pseudomonas aeruginosa [20]): inactive

- MIC (Pseudomonas aeruginosa [21]): inactive
- MIC (Staphylococcus aureus [22]): inactive
SMILES: O=S(=O)(O)SSS(=O)(=O)O
- MBC99.9 (Staphylococcus aureus [6]): inactive
- MBC99.9 (Pseudomonas aeruginosa [20]): inactive

- MIC (Pseudomonas aeruginosa [21]): inactive
- MIC (Staphylococcus aureus [22]): inactive
SMILES: O=S(=O)(O)SS(=O)(=O)O
- MBC99.9 (Staphylococcus aureus [6]): inactive
- MBC99.9 (Pseudomonas aeruginosa [20]): inactive
